In US20100093017A1, “Metabolically Competent Cell Lines” (CXR Biosciences Limited, priority 2008, published 2010):

What was measured:
[1] = system: antioxidant responsive element (ARE); assay: ARE luciferase reporter induction in adenovirus-P450-transduced ARE32 (MCF-7/ARE) cells; format: cell-based, human; details: BHA 20 μM; for ARE reporter induction: 7-EC 100 μM; for induction of the ARE reporter: MCF-7 control cells or in the presence of CYP3A4 or CYP2D6, 7-E 100 μM
Procedure: ARE32 cells were seeded in 24-well plates at 2×10^5 cells per well and cultured overnight. Cells were transduced for 2 h with up to three Adeno-P450s at MOI value of 27 pfu/cell in 0.5 ml of culture medium, after which the medium was removed and replaced with fresh medium. Cells were incubated for an additional 48 h and then were treated with chemicals in serum-free medium for 1 day. Then cells were harvested and lysed. The Luciferase Reporter Assay System (Promega) was used to examine reporter gene activity in cell lysates.
In cell line ARE32, the antioxidant responsive element (ARE), activated by Nrf2, is used to drive a luciferase gene as reporter. A functional ARE is found in the 5′ flanking region of genes encoding NQO1, multiple GST isozymes and many other anticarcinogenic/antioxidant genes. Induction of these genes confers cytoprotection against carcinogenesis and acts to minimize the effects of the toxic insult. Therefore, measurement of ARE induction provides useful information into the particular mechanism of toxicity. […] ARE32 control values are from ARE32 cells without virus infection. ARE32 Transduced values are from ARE32 cells infected with three viruses: Ad3A4.F2A.CPR; Ad2D6(His)CPR; and Ad2A6.F2A.1A1 at a total MOI value of 27.
In further experiments, we examined induction of the ARE reporter in MCF-7 cells expressing CYP3A4 and CPR, CYP2A6 and CPR, CYP2D6 and CPR or CYP2A6 and CYP1A1 by either butylated hydroxyanisole, an antioxidant widely used as a food preservative (BHA-20 μM) or 7-ethoxycoumarin, an antioxidant (7-E-100 μM).
With reference to FIG. 5, expression of the luciferase reporter readout is evaluated in comparison to control MCF-7/ARE cells not expressing P450 transgenes (first bar=1).
Butylated hydroxyanisole (BHA) is an antioxidant used as a food additive (E320). […] We examined induction of the ARE reporter in ARE32 cells expressing CYP3A4 and CPR, CYP2A6 and CPR, CYP2D6 and CPR or CYP2A6 and CYP1A1 by either butylated hydroxyanisole (BHA) at 20 μM or 7-ethoxycoumarin (7-EC) at 100 μM (FIG. 8).

[2] = system: HepG2 cells
Procedure: CYP3A4 and P450 reductase were delivered into HepG2 cells (Hep-3A4) by adenoviral transduction at Multiplicity of Infection (MOI)=8. […] The adenovirus Ad-mock was used to transduce HepG2 cells at MOI=8 as control (Hep-mock). CYP3A4 activity was determined and compared in Hep-3A4 cells and cryopreserved human hepatocytes.

[3] = system: cryopreserved human hepatocytes
[4] = ARE32 cells expressing CYP3A4 or CYP2D6 (with CPR)

| Compound | ARE reporter induction ([1]; ARE32 cells expressing CYP2A6) | ARE reporter induction [1, 4] | induction of the ARE reporter [1] | effect of glutathione depletion by BSO on cytotoxicity ([2]; 100 μM BSO, Hep-3A4 and Hep-mock cells) | additional CYP3A4 related cytotoxic effect under glutathione depletion ([2]; 100 μM BSO, Hep-3A4 vs Hep-mock, at the concentrations used) | cell viability (ATP depletion assay) ([2]; Hep-3A4 and Hep-mock cells) | concentration at which CYP3A4-related toxic activation was observed ([2]; Hep-3A4 vs Hep-mock) | cell viability (ATP depletion assay) [3] |
| --- | --- | --- | --- | --- | --- | --- | --- | --- |
| CCOc1ccc2ccc(=O)oc2c1 [7-ethoxycoumarin] | Significant ARE reporter induction | not with CYP3A4 or CYP2D6 | little or no induction |  |  |  |  |  |
| COc1ccc(O)c(C(C)(C)C)c1 [BHA, butylated hydroxyanisole] | Significant ARE reporter induction | not with CYP3A4 or CYP2D6 | little or no induction |  |  |  |  |  |
| CC(=O)Nc1ccc(O)cc1 [acetaminophen] |  |  |  | significant sensitisation | no apparent additional CYP3A4 related cytotoxic effect | dose-dependent decrease in cell viability | 10000 µM |  |
| CC/C(=C(\c1ccccc1)c1ccc(OCCN(C)C)cc1)c1ccccc1 [tamoxifen] |  |  |  |  |  | dose-dependent decrease in cell viability |  | dose-dependent decrease in cell viability |
